# Laboratory results from patent US4138554A, “7-[D-α-(4-Hydroxy-1,5-naphthyridine-3-carboxamido)-α-phenyl (and p-hydroxyphenyl)acetamido]-3-carbamoyloxymethyl-3-cephem-4-carboxylic acids” (priority 1977, dated 1979).
# Where two headings read alike, the source gives them in different places.
# Assays:
# Type in all cases: cell-based
# [1] = system: S. enteritidis; assay: MIC by serial two-fold agar dilution (Mueller-Hinton agar), S. enteritidis; details: Salmonella enterica; S. enteritidis, Table 1; read-out: MIC
# Procedure: (§1) Minimum inhibitory concentrations (MIC) of BB-S520 were determined by serial two-fold agar dilution method using Steers' apparatus on Meuller-Hinton agar plate against 31 test organisms for the primary screening and also against 61 strains of Pseudomonas aeruginosa for the secondary evaluation. The results are shown in Table 1 and Table 2 along with those of BB-S514 and sulbenicillin.
# (§2) Minimum inhibitory concentrations (MIC) of cephalosporins in the present study were determined by serial two-fold agar dilution method using Steers' apparatus on Mueller-Hinton agar plate against 31 test organisms for the primary screening and also against 61 strains of Pseudomonas aeruginosa for the secondary evaluation.
# [2] = system: Pseudomonas aeruginosa; assay: MIC by agar dilution against 61 strains of Pseudomonas aeruginosa, secondary evaluation; details: for MIC: Pseudomonas aeruginosa, read-out: MIC
# Procedure: as §1, §2
# [3] = system: E. cloacae; assay: MIC by serial two-fold agar dilution (Mueller-Hinton agar), E. cloacae; details: Enterobacter cloacae, Table 1
# Procedure: as §1, §2
# [4] = system: S. aureus; assay: MIC by serial two-fold agar dilution (Mueller-Hinton agar), S. aureus; details: Staphylococcus aureus, read-out: MIC
# Procedure: as §1, §2
# [5] = system: S. marcescens; assay: MIC by serial two-fold agar dilution (Mueller-Hinton agar), S. marcescens; details: Serratia marcescens; S. marcescens, Table 1; read-out: MIC
# Procedure: as §1, §2
# [6] = system: P. vulgaris; assay: MIC by serial two-fold agar dilution (Mueller-Hinton agar), P. vulgaris; details: Proteus vulgaris; P. vulgaris, Table 1; read-out: MIC
# Procedure: as §1, §2
# [7] = system: P. aeruginosa; assay: MIC by serial two-fold agar dilution (Mueller-Hinton agar), P. aeruginosa, primary screening; details: Pseudomonas aeruginosa, Table 1, read-out: MIC
# Procedure: as §1, §2
# [8] = system: Pseudomonas (6 strains); assay: Mean % relative activity (MIC) vs sulbenicillin, Pseudomonas (6 strains); details: Pseudomonas (6 strains), from geometric means of MICs in Table 1
# Procedure: as §1, §2
# [9] = system: Klebsiella sp.; assay: MIC by serial two-fold agar dilution (Mueller-Hinton agar), Klebsiella sp.; details: Klebsiella sp., Table 1; read-out: MIC
# Procedure: as §1, §2
# [10] = system: P. mirabilis; assay: MIC by serial two-fold agar dilution (Mueller-Hinton agar), P. mirabilis; details: Proteus mirabilis; P. mirabilis, Table 1; read-out: MIC
# Procedure: as §1, §2
structure (smiles),measurement,setting,value
CC(=O)OCC1=C(C(=O)O)N2C(=O)C(NC(=O)C(NC(=O)c3cnc4cccnc4c3O)c3ccccc3)C2SC1 (centres unmarked) [BB-S514],MIC,[1],6.3 µg/mL
same,Mean % Relative Activity (Sulbenicillin = 100%),"[2]; Ps. aeruginosa (61 strains), from geometric means of MICs in Table 2",480%
same,MIC,"[2]; BBRI Pa-No. 1, D15, Table 2",6.3 µg/mL
same,MIC,"[2]; BBRI Pa-No. 2, VA, Table 2",6.3 µg/mL
same,MIC,"[2]; BBRI Pa-No. 3, 1449VA, Table 2",3.1 µg/mL
same,MIC,"[2]; BBRI Pa-No. 4, H9 D113, Table 2",12.5 µg/mL
same,MIC,"[2]; BBRI Pa-No. 5, M4865KC, Table 2",6.3 µg/mL
same,MIC,"[2]; BBRI Pa-No. 6, No. 5, Table 2",25 µg/mL
same,MIC,"[2]; BBRI Pa-No. 7, Table 2",12.5 µg/mL
same,MIC,"[2]; BBRI Pa-No. 8, Table 2",6.3 µg/mL
same,MIC,"[2]; BBRI Pa-No. 9, Yale, Table 2",6.3 µg/mL
same,MIC,"[2]; BBRI Pa-No. 10, Table 2",50 µg/mL
same,MIC,"[2]; BBRI Pa-No. 11, Table 2",6.3 µg/mL
same,MIC,"[2]; BBRI Pa-No. 12, Table 2",6.3 µg/mL
same,MIC,"[2]; BBRI Pa-No. 14, Table 2",6.3 µg/mL
same,MIC,"[2]; BBRI Pa-No. 15, Table 2",12.5 µg/mL
same,MIC,"[2]; BBRI Pa-No. 16, No. 130, Table 2",1.6 µg/mL
same,MIC,"[2]; BBRI Pa-No. 17, H6 D114, Table 2",3.1 µg/mL
same,MIC,"[2]; BBRI Pa-No. 18, H8 D121, Table 2",6.3 µg/mL
same,MIC,"[2]; BBRI Pa-No. 19, Table 2",3.1 µg/mL
same,MIC,"[2]; BBRI Pa-No. 20, Table 2",6.3 µg/mL
same,MIC,"[2]; BBRI Pa-No. 21, Table 2",6.3 µg/mL
same,MIC,"[2]; BBRI Pa-No. 23, Table 2",6.3 µg/mL
same,MIC,"[2]; BBRI Pa-No. 24, Table 2",50 µg/mL
same,MIC,"[2]; BBRI Pa-No. 25, Table 2",1.6 µg/mL
same,MIC,"[2]; BBRI Pa-No. 26, Ps32, Table 2",3.1 µg/mL
same,MIC,"[2]; BBRI Pa-No. 28, CPH10527/72, Table 2",6.3 µg/mL
same,MIC,"[2]; BBRI Pa-No. 29, D122, Table 2",3.1 µg/mL
same,MIC,"[2]; BBRI Pa-No. 30, Table 2",6.3 µg/mL
same,MIC,"[2]; BBRI Pa-No. 31, Table 2",1.6 µg/mL
same,MIC,"[2]; BBRI Pa-No. 32, Table 2",6.3 µg/mL
same,MIC,"[2]; BBRI Pa-No. 33, Table 2",25 µg/mL
same,MIC,"[2]; BBRI Pa-No. 34, Table 2",6.3 µg/mL
same,MIC,"[2]; BBRI Pa-No. 35, Table 2",25 µg/mL
same,MIC,"[2]; BBRI Pa-No. 36, Table 2",0.4 µg/mL
same,MIC,"[2]; BBRI Pa-No. 37, Table 2",6.3 µg/mL
same,MIC,"[2]; BBRI Pa-No. 38, Table 2",12.5 µg/mL
same,MIC,"[2]; BBRI Pa-No. 39, Table 2",3.1 µg/mL
same,MIC,"[2]; BBRI Pa-No. 41, Table 2",6.3 µg/mL
same,MIC,"[2]; BBRI Pa-No. 42, Table 2",12.5 µg/mL
same,MIC,"[2]; BBRI Pa-No. 43, Table 2",6.3 µg/mL
same,MIC,"[2]; BBRI Pa-No. 44, Table 2",6.3 µg/mL
same,MIC,"[2]; BBRI Pa-No. 51, Table 2",6.3 µg/mL
same,MIC,"[2]; BBRI Pa-No. 52, Table 2",6.3 µg/mL
same,MIC,"[2]; BBRI Pa-No. 53, Table 2",6.3 µg/mL
same,MIC,"[2]; BBRI Pa-No. 54, Table 2",6.3 µg/mL
same,MIC,"[2]; BBRI Pa-No. 55, Table 2",6.3 µg/mL
same,MIC,"[2]; BBRI Pa-No. 56, Table 2",6.3 µg/mL
same,MIC,"[2]; BBRI Pa-No. 57, Table 2",3.1 µg/mL
same,MIC,"[2]; BBRI Pa-No. 58, Table 2",12.5 µg/mL
same,MIC,"[2]; BBRI Pa-No. 59, Table 2",6.3 µg/mL
same,MIC,"[2]; BBRI Pa-No. 60, Table 2",3.1 µg/mL
same,MIC,"[2]; BBRI Pa-No. 61, Table 2",6.3 µg/mL
same,MIC,"[2]; BBRI Pa-No. 62, Table 2",12.5 µg/mL
same,MIC,"[2]; BBRI Pa-No. 64, Table 2",6.3 µg/mL
same,MIC,"[2]; BBRI Pa-No. 65, Table 2",3.1 µg/mL
same,MIC,"[2]; BBRI Pa-No. 66, Table 2",3.1 µg/mL
same,MIC,"[2]; BBRI Pa-No. 67, Table 2",12.5 µg/mL
same,MIC,"[2]; BBRI Pa-No. 68, Table 2",12.5 µg/mL
same,MIC,"[2]; BBRI Pa-No. 69, Table 2",25 µg/mL
same,MIC,"[2]; BBRI Pa-No. 70, K-Ps102 (CR-102), Table 2",6.3 µg/mL
same,MIC,"[2]; GN315, BBRI Pa-No. 27, GN315, Table 2",6.3 µg/mL
same,MIC,"[2]; GN4925, BBRI Pa-No. 45, GN4925, Table 2",12.5 µg/mL
same,MIC,[3]; E. cloacae (1st line),25 µg/mL
same,MIC,[3]; E. cloacae (2nd line),50 µg/mL
same,MIC,[3]; E. cloacae (3rd line),25 µg/mL
same,MIC,"[4]; S. aureus BX-1633, Table 1",3.1 µg/mL
same,MIC,"[4]; S. aureus Smith (1st line), Table 1",3.1 µg/mL
same,MIC,"[4]; S. aureus Smith (2nd line), Table 1",6.3 µg/mL
same,MIC,"[4]; S. aureus, unnamed strain (4th S. aureus line), Table 1",25 µg/mL
same,MIC,"[4]; S. aureus, unnamed strain (5th S. aureus line), Table 1",6.3 µg/mL
same,MIC,"[4]; S. aureus, unnamed strain (6th S. aureus line), Table 1",> 100 µg/mL
same,MIC,[5],> 100 µg/mL
same,MIC,[6],25 µg/mL
same,MIC,[7]; P. aeruginosa (1st line),3.1 µg/mL
same,MIC,[7]; P. aeruginosa (2nd line),3.1 µg/mL
same,MIC,[7]; P. aeruginosa (3rd line),6.3 µg/mL
same,MIC,[7]; P. aeruginosa (4th line),25 µg/mL
same,MIC,[7]; P. aeruginosa (5th line),6.3 µg/mL
same,MIC,[7]; P. aeruginosa (6th line),3.1 µg/mL
same,Mean % Relative Activity (Sulbenicillin = 100%),[8],283%
same,MIC,[9],12.5 µg/mL
same,MIC,[10],0.8 µg/mL
